System: HeLa, an HPV-18 positive human cervical cancer cell line
Experiment: Cell proliferation and cell death, trypan blue exclusion, HeLa cells
Type: cell-based
Description: M4N in 10% (w/v) HP-β-CD and 25% (v/v) PEG 300 (hereafter, the “CPE formulation”), M4N in 30% (w/v) HP-β-CD and 25% (v/v) PEG 300 (hereafter, the “CPE 25/30 formulation”) and M4N in 27% (w/v) HP-β-CD and 33% (v/v) PEG 300 (hereafter, the “CPE 33/27 formulation”) was tested for their effects on cell death and proliferation on two different tumor cell lines: HeLa, an HPV-18 positive human cervical cancer cell line, and C-33A, an HPV-negative human cervical cancer cell line M4N in DMSO was also tested in parallel. Both tumor cell lines were treated with increasing amounts of M4N: 0 μM, 20 μM, 40 μM, 60 μM and 80 μM, for 72 hr with the DMSO or the CPE formulation. Each formulation was added to total 1% of the growth media (Minimal Essential Medium with L-glutamine supplemented with 10% fetal bovine serum, 1 mM sodium pyruvate, 1× non-essential amino acid solution, and 1,000 IU/mL penicillin/1,000 μg/mL streptomycin solution). Control cells were grown under the same conditions and were left untreated. After 72 hr of treatment or no treatment, the total number of cells and the number of live cells in each sample were counted, using the trypan blue exclusion method. The cell proliferation rate and the percentage of dead cells in each sample were analyzed. Results of this experiment are shown in FIG. 1, FIG. 2, and Tables 6 through 12.
FIG. 1 is a graphical representation of the ratio of the number of treated cells/number of untreated cells plotted against increasing concentrations of M4N in either the DMSO formulation or the CPE formulation for treatment of the C-33A cells and HeLa cells. FIG. 2 is a graphical representation of the percentage of dead cells plotted against increasing concentrations of M4N and in either DMSO formulation or the CPE formulation for treatment of the two cancer cell lines, C-33A and HeLa cells in culture.
Various lots of M4N were tested to show the effectiveness of the drug of different lots. HeLa cells were treated with increasing amounts of M4N: 0 μM, 20 μM, 40 μM, 60 μM and 80 μM, for 72 hr with the CPE formulation. Each formulation was added to total 1% of the growth media (Minimal Essential Medium with L-glutamine supplemented with 10% fetal bovine serum, 1 mM sodium pyruvate, 1× non-essential amino acid solution, and 1,000 IU/mL penicillin/1,000 μg/mL streptomycin solution). Control cells were grown under the same conditions and were left untreated. After 72 hr of treatment or no treatment, the total number of cells and the number of live cells in each sample were counted, using the trypan blue exclusion method. The cell proliferation rate and the percentage of dead cells in each sample were analyzed.

[1] = M4N 20 μM in CPE 25/30 formulation, 72 hr
[2] = M4N 20 μM in CPE 25/30 formulation, 72 hr, at 3 months
[3] = M4N 20 μM in CPE 33/27 formulation, 72 hr, time zero
[4] = M4N 20 μM in CPE formulation, 72 hr, at 3 months
[5] = M4N 20 μM in CPE formulation, 72 hr, at 9 months
[6] = M4N 20 μM in CPE formulation, 72 hr, at 12 months
[7] = M4N 20 μM in CPE formulation, 72 hr, comparison with CPE 25/30
[8] = M4N 20 μM in CPE formulation, 72 hr, time 0
[9] = M4N 20 μM in CPE formulation, 72 hr, time zero, comparison with CPE 33/27
[10] = M4N 20 μM in DMSO, 72 hr, at 9 months
[11] = M4N 20 μM in DMSO, 72 hr, at 12 months
[12] = M4N 20 μM in DMSO, 72 hr, time 0
[13] = M4N 40 μM in CPE 25/30 formulation, 72 hr
[14] = M4N 40 μM in CPE 25/30 formulation, 72 hr, at 3 months
[15] = M4N 40 μM in CPE 33/27 formulation, 72 hr, time zero
[16] = M4N 40 μM in CPE formulation, 72 hr, at 3 months
[17] = M4N 40 μM in CPE formulation, 72 hr, at 9 months
[18] = M4N 40 μM in CPE formulation, 72 hr, at 12 months
[19] = M4N 40 μM in CPE formulation, 72 hr, comparison with CPE 25/30
[20] = M4N 40 μM in CPE formulation, 72 hr, time 0
[21] = M4N 40 μM in CPE formulation, 72 hr, time zero, comparison with CPE 33/27
[22] = M4N 40 μM in DMSO, 72 hr, at 9 months
[23] = M4N 40 μM in DMSO, 72 hr, at 12 months
[24] = M4N 40 μM in DMSO, 72 hr, time 0
[25] = M4N 60 μM in CPE 25/30 formulation, 72 hr
[26] = M4N 60 μM in CPE 25/30 formulation, 72 hr, at 3 months
[27] = M4N 60 μM in CPE 33/27 formulation, 72 hr, time zero
[28] = M4N 60 μM in CPE formulation, 72 hr, at 3 months
[29] = M4N 60 μM in CPE formulation, 72 hr, at 9 months
[30] = M4N 60 μM in CPE formulation, 72 hr, at 12 months
[31] = M4N 60 μM in CPE formulation, 72 hr, comparison with CPE 25/30
[32] = M4N 60 μM in CPE formulation, 72 hr, time 0
[33] = M4N 60 μM in CPE formulation, 72 hr, time zero, comparison with CPE 33/27
[34] = M4N 60 μM in DMSO, 72 hr, at 9 months
[35] = M4N 60 μM in DMSO, 72 hr, at 12 months
[36] = M4N 60 μM in DMSO, 72 hr, time 0
[37] = M4N 80 μM in CPE 25/30 formulation, 72 hr
[38] = M4N 80 μM in CPE 25/30 formulation, 72 hr, at 3 months
[39] = M4N 80 μM in CPE 33/27 formulation, 72 hr, time zero
[40] = M4N 80 μM in CPE formulation, 72 hr, at 3 months
[41] = M4N 80 μM in CPE formulation, 72 hr, at 9 months
[42] = M4N 80 μM in CPE formulation, 72 hr, at 12 months
[43] = M4N 80 μM in CPE formulation, 72 hr, comparison with CPE 25/30
[44] = M4N 80 μM in CPE formulation, 72 hr, time 0
[45] = M4N 80 μM in CPE formulation, 72 hr, time zero, comparison with CPE 33/27
[46] = M4N 80 μM in DMSO, 72 hr, at 9 months
[47] = M4N 80 μM in DMSO, 72 hr, at 12 months
[48] = M4N 80 μM in DMSO, 72 hr, time 0
[49] = M4N lot EM1001, 20 μM in CPE formulation, 72 hr
[50] = M4N lot EM1001, 40 μM in CPE formulation, 72 hr
[51] = M4N lot EM1001, 60 μM in CPE formulation, 72 hr
[52] = M4N lot EM1001, 80 μM in CPE formulation, 72 hr
[53] = M4N lot EM1002, 20 μM in CPE formulation, 72 hr
[54] = M4N lot EM1002, 40 μM in CPE formulation, 72 hr
[55] = M4N lot EM1002, 60 μM in CPE formulation, 72 hr
[56] = M4N lot EM1002, 80 μM in CPE formulation, 72 hr

## COc1ccc(C[C@@H](C)[C@@H](C)Cc2ccc(OC)c(OC)c2)cc1OC [Formulation M4N, meso-1,4-bis(3,4-dimethoxyphenyl)-2,3-dimethylbutane]
80 μM or […] M4N in CPE formulation
  cell death, share of the cell population: about 20%
80 μM or […] M4N in DMSO formulation
  cell death, share of the cell population: about 40%
CPE formulation, 72 hr
  M4N sufficient to cause about a 50% inhibition in cell proliferation: ~7.2 µg/mL
CPE formulation, lots EM1001 and EM1002
  effectiveness of the drug of different lots: remains the same
[1]
  % Dead Cells: 9.4%
  % Viability: 90.7%
  Proliferation Rate: 0.34
[2]
  % Dead Cells: 11.9%
  % Viability: 88.1%
  Proliferation Rate: 0.39
[3]
  % Dead Cells: 10.9%
  % Viability: 89.2%
  Proliferation Rate: 0.43
[4]
  % Dead Cells: 9.0%
  % Viability: 91.0%
  Proliferation Rate: 0.39
[5]
  % Dead Cells: 31.3%
  % Viability: 68.7%
  Proliferation Rate: 0.24
[6]
  % Dead Cells: 3.3%
  % Viability: 96.8%
  Proliferation Rate: 0.74
[7]
  % Dead Cells: 6.6%
  % Viability: 93.5%
  Proliferation Rate: 0.33
[8]
  % Dead Cells: 4.4%
  % Viability: 95.6%
  Proliferation Rate: 0.52
[9]
  % Dead Cells: 11.9%
  % Viability: 88.1%
  Proliferation Rate: 0.35
[10]
  % Dead Cells: 10.7%
  % Viability: 89.3%
  Proliferation Rate: 0.19
[11]
  % Dead Cells: 12.6%
  % Viability: 87.4%
  Proliferation Rate: 0.23
[12]
  % Dead Cells: 9.9%
  % Viability: 90.1%
  Proliferation Rate: 0.25
[13]
  % Dead Cells: 11.0%
  % Viability: 89.1%
  Proliferation Rate: 0.31
[14]
  % Dead Cells: 13.4%
  % Viability: 86.6%
  Proliferation Rate: 0.32
[15]
  % Dead Cells: 13.6%
  % Viability: 86.4%
  Proliferation Rate: 0.19
[16]
  % Dead Cells: 16.5%
  % Viability: 83.5%
  Proliferation Rate: 0.09
[17]
  % Dead Cells: 27.2%
  % Viability: 72.8%
  Proliferation Rate: 0.10
[18]
  % Dead Cells: 5.0%
  % Viability: 95.0%
  Proliferation Rate: 0.21
[19]
  % Dead Cells: 23.4%
  % Viability: 76.7%
  Proliferation Rate: 0.08
[20]
  % Dead Cells: 9.4%
  % Viability: 90.6%
  Proliferation Rate: 0.28
[21]
  % Dead Cells: 25.9%
  % Viability: 74.2%
  Proliferation Rate: 0.14
[22]
  % Dead Cells: 8.8%
  % Viability: 91.2%
  Proliferation Rate: 0.14
[23]
  % Dead Cells: 13.7%
  % Viability: 86.4%
  Proliferation Rate: 0.04
[24]
  % Dead Cells: 13.2%
  % Viability: 86.8%
  Proliferation Rate: 0.25
[25]
  % Dead Cells: 22.8%
  % Viability: 77.3%
  Proliferation Rate: 0.12
[26]
  % Dead Cells: 23.1%
  % Viability: 76.9%
  Proliferation Rate: 0.11
[27]
  % Dead Cells: 29.3%
  % Viability: 70.7%
  Proliferation Rate: 0.10
[28]
  % Dead Cells: 43.1%
  % Viability: 56.9%
  Proliferation Rate: 0.03
[29]
  % Dead Cells: 13.6%
  % Viability: 86.4%
  Proliferation Rate: 0.09
[30]
  % Dead Cells: 25.0%
  % Viability: 75.0%
  Proliferation Rate: 0.05
[31]
  % Dead Cells: 55.6%
  % Viability: 44.5%
  Proliferation Rate: 0.03
[32]
  % Dead Cells: 19.6%
  % Viability: 80.4%
  Proliferation Rate: 0.13
[33]
  % Dead Cells: 26.2%
  % Viability: 73.9%
  Proliferation Rate: 0.10
[34]
  % Dead Cells: 32.5%
  % Viability: 67.5%
  Proliferation Rate: 0.03
[35]
  % Dead Cells: 35.4%
  % Viability: 64.6%
  Proliferation Rate: 0.04
[36]
  % Dead Cells: 36.1%
  % Viability: 63.9%
  Proliferation Rate: 0.13
[37]
  % Dead Cells: 45.2%
  % Viability: 54.8%
  Proliferation Rate: 0.07
[38]
  % Dead Cells: 35.6%
  % Viability: 64.4%
  Proliferation Rate: 0.04
[39]
  % Dead Cells: 25.0%
  % Viability: 75.0%
  Proliferation Rate: 0.09
[40]
  % Dead Cells: 29.0%
  % Viability: 71.0%
  Proliferation Rate: 0.03
[41]
  % Dead Cells: 11.9%
  % Viability: 88.1%
  Proliferation Rate: 0.08
[42]
  % Dead Cells: 47.2%
  % Viability: 52.8%
  Proliferation Rate: 0.03
[43]
  % Dead Cells: 56.7%
  % Viability: 43.4%
  Proliferation Rate: 0.04
[44]
  % Dead Cells: 21.5%
  % Viability: 78.5%
  Proliferation Rate: 0.13
[45]
  % Dead Cells: 21.6%
  % Viability: 78.4%
  Proliferation Rate: 0.11
[46]
  % Dead Cells: 50.0%
  % Viability: 50.0%
  Proliferation Rate: 0.02
[47]
  % Dead Cells: 23.6%
  % Viability: 76.5%
  Proliferation Rate: 0.15
[48]
  % Dead Cells: 38.6%
  % Viability: 61.4%
  Proliferation Rate: 0.02
M4N in DMSO or CPE formulation vs non-M4N-treated controls in the same formulation
  Cell proliferation rate: reduced
[49]
  % Dead Cells: 5.1%
  % Viability: 94.9%
  Proliferation Rate: 0.25
[50]
  % Dead Cells: 26.3%
  % Viability: 73.7%
  Proliferation Rate: 0.10
[51]
  % Dead Cells: 55.6%
  % Viability: 44.4%
  Proliferation Rate: 0.01
[52]
  % Dead Cells: 40.2%
  % Viability: 59.8%
  Proliferation Rate: 0.01
[53]
  % Dead Cells: 12.0%
  % Viability: 88.0%
  Proliferation Rate: 0.32
[54]
  % Dead Cells: 25.8%
  % Viability: 74.2%
  Proliferation Rate: 0.11
[55]
  % Dead Cells: 58.1%
  % Viability: 41.9%
  Proliferation Rate: 0.05
[56]
  % Dead Cells: 59.7%
  % Viability: 40.3%
  Proliferation Rate: 0.03
read-out: M4N sufficient to cause about a 50% inhibition in cell proliferation, CPE formulation, 72 hr
  IC50: ~20 µM

— patent US20080096967A1, “Formulations for Injection of Catecholic Butanes, Including Ndga Compounds, Into Animals” (priority 2005, published 2008)
